Source: patent publication US20090069443A1, “Sedative Effect-Imparting Agent And Sedative Perfume Composition Containing The Same” (Shiseido Co., Ltd., priority 2005, published 2009)
“Also recorded” adds a separate entry of the source.

Tested on: healthy adult females
Assay: CNV (contingent negative variation) brain wave measurement of sedative effect
Type: in vivo, human
Details: 1 mass % solution in ethanol, inhaled from cotton pad below the nose; three to six healthy adult females; FIG. 1
Description: Measured was fluctuation in the negative potential of the event-related potential, a type of brain wave, which is also called contingent negative variation (hereinafter, referred to as CNV). The fluctuation intensity of the earlier component of the CNV brain wave is reported to show a positive correlation with the level of consciousness such as attention or expectation, and thus, the CNV brain wave can be used for quantitative evaluation of the effect of a fragrance on the consciousness level (sedated/stimulated) (Torii S. et al., Contingent negative variation (CNV) and the psychological effects of odour. In Perfumery: The Psychology and Biology of Fragrance, Edited by Toller S. V. and Dodd G. H., pp. 107-120, Chapman and Hall, London (1998)).
In the present invention, electrodes were adhered to the […] (Cz) and the left ear (A1) of a subject, and the voltage between the electrodes was measured with an electroencephalograph. The subject was made to listen to a click sound via headphone and push a switch in hand in response to a light-emitting diode flashing few seconds after the click sound, and the CNV brain wave was determined during the operation. In the test with fragrance, a perfume composition was allowed to penetrate into a square cotton pad of approximately 0.5 0.5 cm in size; the cotton pad was placed below the nose; and the subject was allowed to inhale the fragrance together with normal breathing during the series of operations above. […] The CNV brain waves were measured 30 times with and without fragrance respectively, and the fragrance effect was evaluated by comparing the integrated values of the earlier component of the CNV brain wave 400 to 1,000 ms after the click.
o-dimethoxybenzene (o-DMB), m-dimethoxybenzene (m-DMB), and p-dimethoxybenzene (p-DMB) were dissolved respectively in ethanol, to give 1 mass % solutions, and the effect thereof on CNV was measured according to the test method as above. […]

SMILES | sedative effect (effect on CNV)
COc1cccc(OC)c1 [m-dimethoxybenzene] | favorable effect that leads the subject to sedative direction; also recorded: particularly favorable sedative effect
COc1ccccc1OC [o-dimethoxybenzene] | favorable effect that leads the subject to sedative direction; also recorded: particularly favorable sedative effect
COc1ccc(OC)cc1 [p-dimethoxybenzene] | favorable effect that leads the subject to sedative direction
